BindingDB's records for doi:10.1016/s0960-894x(03)00639-5 (Instituto De Química Médica (Csic), 2003)

Tests used:
[1] = biological target: Thymidine kinase (Herpes simplex virus 1); experiment: Inhibitory concentration on phosphorylation of [methyl-3H]-dTh by HSV-1 Thymidine Kinase
[2] = biological target: Thymidine kinase 2, mitochondrial (Homo sapiens) (UniProt O00142); experiment: Inhibitory concentration on phosphorylation of [methyl-3H]-dTh by human Thymidine Kinase 2
Chain of Thymidine kinase 2, mitochondrial (Homo sapiens) (O00142 whole entry, looked up): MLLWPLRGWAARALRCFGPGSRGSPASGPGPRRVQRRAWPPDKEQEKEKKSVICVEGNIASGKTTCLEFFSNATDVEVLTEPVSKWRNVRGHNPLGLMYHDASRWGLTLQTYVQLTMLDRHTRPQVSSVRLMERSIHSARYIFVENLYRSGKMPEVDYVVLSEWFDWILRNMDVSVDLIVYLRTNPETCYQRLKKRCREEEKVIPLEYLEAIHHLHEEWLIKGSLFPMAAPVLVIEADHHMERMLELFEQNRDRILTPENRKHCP

| IC50 [1] [µM] | IC50 [2] [µM] | Structure (SMILES) |
| --- | --- | --- |
| > 500 | 57 | Cc1cn(C/C=C\CNCc2ccccc2)c(=O)[nH]c1=O [1-(4-Benzylamino-but-2-enyl)-5-methyl-1H-pyrimidine-2,4-dione] |
| – | 3.5 | Cc1cn(C/C=C\CN(Cc2ccccc2)Cc2ccccc2)c(=O)[nH]c1=O [1-(4-Dibenzylamino-but-2-enyl)-5-methyl-1H-pyrimidine-2,4-dione] |
| 72 | 28 | Cc1cn(C/C=C\CNC(=O)c2cccc(C(F)(F)F)c2)c(=O)[nH]c1=O [N-[4-(5-Methyl-2,4-dioxo-3,4-dihydro-2H-pyrimidin-1-yl)-but-2-enyl]-3-trifluoromethyl-benzamide] |
